Measured values taken from patent US12064412B2 (SUN YAT-SEN UNIVERSITY, priority 2019, dated 2024).

Key:
[1] = oral administration, rat; cited from earlier work
[2] = Phase solubility of naringenin with hydroxypropyl β-cyclodextrin in environments of different pH values; format: physicochemical; conditions: basic pH (8 and 9) versus ultrapure water, same hydroxypropyl β-cyclodextrin concentration (0-16% w/v), 25±1° C., 48 hours
Text: The process of the experimentation on the coating and solubilization of naringenin by hydroxypropyl β-cyclodextrin comprises:
preparing buffer-salt solutions of pH values of 4, 8 and 9 according to the method on a pharmacopoeia, adding different masses of the hydroxypropyl β-cyclodextrin into the buffer-salt solutions of the pH values of 4, 8 and 9 and ultrapure water, to prepare solutions of hydroxypropyl β-cyclodextrin of mass fractions (w/v) of 0, 2, 4, 8 and 16%, adding individually excessive naringenin, shaking in a constant-temperature shaking table at 25±1° C. at 200 rpm for 48 hours, taking out, standing, filtering by using a 0.45 μm microporous filter membranes, removing the primary filtrate, properly diluting the subsequent filtrate, and performing ultraviolet assay.
The detection method comprises, by using ultraviolet-visible spectrophotometry, measuring at the wavelength of 288 nm.
The preparing of a stock solution of the reference substance comprises: precisely weighing an appropriate amount of the naringenin reference substance that has been dried at 105° C. to constant weight, placing in a 10 mL volumetric flask, and dissolving by using methanol to volume, to obtain a stock solution of the reference substance of the concentration of 1 mg/mL. […]

[3] = oral dosage of 21 mg/kg, as reported by documents; cited from earlier work

In the case of O=C1C[C@@H](c2ccc(O)cc2)Oc2cc(O)cc(O)c21 [naringenin], the “bioavailability, as calculated by the free naringenin” value [1] is given as “approximately 4%”, the “total naringenin concentration in hydroxypropyl β-cyclodextrin solution at basic pH relative to ultrapure water” value [2] is given as “approximately 3 times” and the AUC0-t [3] is given as 15080.4 ng·min/g. The Tmax [3] was 2 h.
